In US20050266512A1, “Detection of proteases and screening for protease inhibitors” (priority 2000, published 2005):

Test system: horse erythrocytes
Experiment: Hemolytic plate assay (erythrocyte lysis, decrease in absorbance)
Type: cell-based
Settings: FIG. 1
Experimental: The HIV-1 proaerolysin variant generated in EXAMPLE 3 was incubated with varying concentrations of an HIV protease-containing sample in a microtiter plate (HIV-1 protease obtained from BACHEM, Torrance, Calif.). The HIV-1 proaerolysin variant (1.5×10^−6 M) was diluted 1:16 in PBS to a final volume of 100 μl and added to the first column of wells of a 96 well plate. Various concentrations of HIV-protease containing samples, ranging from 10 to 500 ng of HIV-1 protease in a final volume of 100 μl, were added to each of the 8 wells of the first column of the microtiter plate, and the plate incubated for four hours.
After incubation, the samples were serially diluted 1:2 by adding 100 μl of PBS to the first column of wells, mixing and transferring 100 μl sequentially to each of the wells in every row. Then, 100 μl of washed horse erythrocytes were added to all wells so that the final erythrocyte concentration was 0.4%. […]

Substance	absorbance (erythrocyte lysis) (HIV variant of proaerolysin activated with HIV protease, absorbance at 600 nm, listed as HIV variant of proaerolysin)	absorbance (erythrocyte lysis) (HIV variant of proaerolysin activated with HIV protease, absorbance at 600 nm, listed as proaerolysin variant)	absorbance (erythrocyte lysis) (native proaerolysin activated with trypsin)
HIV-1 proaerolysin variant: proaerolysin variant in which the normal activation sequence KVRRAR was replaced with the HIV-1 protease sensitive sequence QNYPIV	decrease in absorbance	lysis of the erythrocytes	–
native proaerolysin: precursor form of the aerolysin toxin, a 52 kDa protein produced by bacteria in the genus Aeromonas	–	–	decrease in absorbance
